Like-named read-outs stand apart in the source and are kept apart here.

We go through one compound from patent US20180085356A1, “METHOD OF TREATING DISEASE CHARACTERISED BY PROTEIN AGGREGATE DEPOSITION IN NEURONAL CELLS” (CHRONOS THERAPEUTICS LIMITED, priority 2013, published 2018).

One series concerns rat microglia. Put plainly: Microglial cell culture model of inflammation (LPS challenge). The class given is cell-based. Particulars: 100 ng/ml LPS overnight. How it is done: To investigate the effect of tacrolimus on microglial function, rat microglia were isolated as follows. A primary glial co-culture was isolated from P2 Sprague Dawley rat pups. The cells were cultured until confluency and then the microglia were isolated from the confluent glial cells through mechanical shaking. The isolated microglial cells were then subjected to inflammatory challenge by overnight exposure to 100 ng/ml lipopolysaccharide (LPS), in the presence or absence of tacrolimus. Glial cell activity was monitored by determining cell viability (Cell Counting Kit-8), the presence of reactive oxygen species (by quantitative fluorescence measurement in the supernatant/cell lysate), microvesicle shedding (by monitoring vesicle formation in cells loaded with Calcein-AM and then challenged with 1 mM ATP) and inflammatory cytokine production (by qPCR).

The subject of a further series is S. cerevisiae. Put plainly: Chronological lifespan of ageing stationary phase yeast culture (outgrowth viability). The class given is cell-based, Saccharomyces cerevisiae. The conditions noted are these: 40 μM tacrolimus. How it is done: Analysis of chronological lifespan in yeast involves assessment of the viability of a stationary phase culture over time. Yeast are stored in glycerol stocks at −80° C., inoculated into YPD (Yeast extract-Peptone-Dextrose) and incubated overnight. From this culture, a 1/25 dilution is prepared to produce an ageing culture that is incubated at 30° C. throughout the duration of the experiment. The first 24 hours of yeast growth are assessed in Complete Synthetic Media (CSM) to confirm that the culture has reached stationary phase. After 24 hours, when the culture has completed the exponential growth phase and has entered stationary phase, its viability can then be assessed. Viability is measured by taking a 5 μl sample of the ageing culture and diluting this into a total volume of 150 μlYPD. Growth of this “outgrowth culture” is measured using the Bioscreen-C MBR machine that both incubates the plates and measures optical turbidity every 20 minutes. Comparison of the viability curves of outgrowth cultures taken over several successive days can be used to observe the reduction in viability of the stationary phase culture over time. Specifically, the interval between the time taken for the outgrowth culture to reach OD600=0.6 on day 1, and the time taken to reach OD600=0.6 on a later day (for example day 7) can be used as a measure of the “ageing rate” of the culture. […]

Series [1] is described as follows: Tacrolimus blood levels in healthy human volunteers given capsule. The class given is in vivo. The conditions noted are these: oral. The protocol: A hard gelatine capsule was filled with the following composition:
One capsule as above containing 0.3 mg tacrolimus was administered daily to healthy human volunteers for three successive days. […] Similarly, no change in TNF-α levels occurred as a result of administering 0.6 mg daily of tacrolimus to healthy volunteers. The average trough level of tacrolimus (level after 24 hours of administration of each dose) observed was approximately 220 pg/ml.

For another series, the system named is TDP-43(Q331K) mice. In words: Rotarod testing of TDP-43(Q331K) transgenic mice. It counts as in vivo, mouse. The conditions noted are these: tacrolimus 0.25, 1.25 and 2.5 mg/kg p.o. 6 days a week for 70 weeks vs. vehicle.
In series [2] the test system is α-synuclein and phospho-Tau (p-Tau). Put plainly: Immunohistochemistry for α-synuclein and p-Tau in SNc of 6-OHDA-lesioned rats. The class given is in vivo, rat. Particulars: 1 mg/kg s.c., 3 months; p<0.05 vs. vehicle. The protocol:
After 3 months, 10 randomly selected rats (5 from each group) were terminally anaesthetised. Blood and striatal tissue samples were taken and the posterior brain block containing the SNc was fixed by immersion in 4% paraformaldehyde in 0.1 M phosphate buffer (PB) for 24 hours. Following cryoprotection in 30% sucrose in 0.1M PB for 2-3 days and freezing the blocks in liquid nitrogen, samples were stored at −80° C. for α-synuclein and phospho-Tau (p-Tau) immunohistochemistry (IHC). This was repeated for 11 rats at 6 months (randomly selected from the surviving rats in both groups). Immunohistochemistry for α-synuclein and p-Tau was carried out. Brain samples containing the SNc region were double-immunostained for p-Tau (AT8) and α-synuclein. The number of positive cells for each single stain and the number of double-stained cells was manually counted for 6 sections per animal.

The subject of another series is TDP-43. In words: Motor neuron culture with Aβ1-42 insult: extranuclear TDP-43 accumulation. It counts as cell-based, rat. How it is done: Primary motor neuron (MN) cultures generated from rat spinal cord were treated with 20 μM amyloid beta 1-42 peptide (Aβ1-42). […] This model was used to determine the effect of tacrolimus on TDP-43 toxicity in motor neurons. […] After permeabilisation with 0.1% saponin, one group of cells was incubated for 2 hours with a) mouse monoclonal anti-microtubule-associated-protein 2 (MAP-2) antibody, and b) rabbit polyclonal anti-TDP-43 antibody. The anti-MAP-2 antibody was used to determine MN survival (number of stained MN) and MN neurite length. The anti-TDP-43 antibody was used to examine extranuclear TDP-43: the area of extranuclear TDP-43 staining per MN was calculated by normalising to the number of MAP-2 positive cells.

Take `C=CC[C@@H]1/C=C(\C)C[C@H](C)C[C@H](OC)[C@H]2O[C@@](O)(C(=O)C(=O)N3CCCC[C@H]3C(=O)O[C@H](/C(C)=C/[C@@H]3CC[C@@H](O)[C@H](OC)C3)[C@H](C)[C@@H](O)CC1=O)[C@H](C)C[C@@H]2OC` [tacrolimus, Tacrolimus]: the “LPS-induced oxidative stress (reactive oxygen species)” value with rat microglia (p<0.01 all concentrations, concentration-dependent) is recorded as “significantly reduced”. In addition, the “LPS-induced increase in metabolic activity of glial cells” value in the series with rat microglia (p<0.01 for 100 nM and 1 μM) is on record as “reduces this increase in a concentration-dependent manner”. For the same compound, the LPS-induced microvesicle shedding entry in the series on rat microglia (p<0.01 for 1 μM, concentration-dependent) is “increase is reduced”. Further, the “rate of ageing / chronological lifespan of stationary phase yeast culture” value in the series on S. cerevisiae was “significantly delays the rate of ageing and extends the chronological lifespan”. In the series with S. cerevisiae (control without tacrolimus 287 minutes), the “interval between the x-intercepts at OD600=0.6 on days 1 and 9” value was 63 min. Further, the average peak level result in series [1] (0.3 mg capsule daily, three days) is reported as “approximately 3700 pg/mL”. Further, the concentration at 24 h in series [1] (human, blood, two capsules, single dose of 0.6 mg, read-out: expected trough level) is ~0.44 ng/mL. Besides, in series [1] (human, blood, 0.3 mg capsule daily, three days, read-out: average area under the curve AUC 0_t), the AUC (usually concentration integrated over time) is ~23.5 ng·h/mL. The concentration at 24 h in series [1] (human, blood, 0.3 mg capsule daily, three days, read-out: average trough level (after 24 hours of administration of each dose)) is ~0.22 ng/mL. Further, in the series on TDP-43(Q331K) mice, the “progression of motor decline (rotarod latency)” value was “delays the progression of motor decline”. For the same compound, in series [2], the “number of cells staining positively for p-Tau” value is reported as “lower counts of positive cells” and the “number of cells staining positively for α-synuclein” value is “lower counts of positive cells”. Further, the “increase of TDP-43:MN ratio in response to Aβ1-42 insult relative to unchallenged cells” value in the series with TDP-43 (100 nM tacrolimus, 24 hours, control cells increased by 191%) amounted to 35%. The “TDP-43 levels normalised to motor neuron number (TDP-43:MN ratio)” value with TDP-43 (all 3 concentrations, 24 hours after Aβ1-42 insult) is “significantly reduced TDP-43 levels”.
